Measurements taken from ChEMBL document CHEMBL1201862, “PubChem BioAssay data set” (2004).
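Growth conditions: 96-well plates. Treatment: test compound, 48 hours, 5 concentrations. Analysis: linear interpolation between bracketing concentrations; unreached endpoints set to highest concentration. Here, GI50 denotes the concentration required for 50% inhibition of growth.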 Activity calls are given as the source filed them. Cut-off read from the data, not from the text of the source: active = GI50 up to about 1.1 µM and inactive = higher.

What was measured:
Experiment in all cases: NCI-60 cell line screen, 48 h
[1] = system: BT-549
[2] = system: CAKI-1
[3] = system: HOP-92
[4] = system: MDA-MB-231
[5] = system: RPMI-8226
[6] = system: MOLT-4
[7] = system: OVCAR-5
[8] = system: HT-29
[9] = system: UACC-62
[10] = system: RXF 393
[11] = system: 786-0
[12] = system: UO-31
[13] = system: MDA-MB-435
[14] = system: M14
[15] = system: T47D
[16] = system: SK-OV-3
[17] = system: OVCAR-4
[18] = system: SN12C
[19] = system: COLO 205
[20] = system: SNB-75
[21] = system: ACHN
[22] = system: SNB-19
[23] = system: NCI-H23
[24] = system: HCT-116
[25] = system: EKVX
[26] = system: PC-3
[27] = system: HL-60
[28] = system: UACC-257
[29] = system: IGROV-1
[30] = system: A498
[31] = system: Malme-3M
[32] = system: KM12
[33] = system: NCI-H226
[34] = system: MDA-N
[35] = system: SF-295
[36] = system: HCC 2998
[37] = system: MCF7
[38] = system: SK-MEL-5
[39] = system: HOP-62
[40] = system: SW-620
[41] = system: DU-145
[42] = system: Hs-578T
[43] = system: HCT-15
[44] = system: NCI/ADR-RES
[45] = system: SK-MEL-2
[46] = system: SF-539
[47] = system: CCRF-CEM
[48] = system: U-251
[49] = system: OVCAR-8
[50] = system: NCI-H460
[51] = system: NCI-H522
[52] = system: LOX IMVI
[53] = system: K562
[54] = system: SR
[55] = system: TK-10
[56] = system: SK-MEL-28
[57] = system: A549
[58] = system: OVCAR-3
[59] = system: SF-268

With `O=[N+]([O-])c1ccc(/C(=C\c2ccccc2)Cn2ccnc2)cc1` the GI50 [1] was 25.6 µM (inactive), the GI50 [2] was 3.77 µM (inactive) and the GI50 [3] was 18.9 µM (inactive). For the same compound, the GI50 [4] was 13.1 µM (inactive), the GI50 [5] was 28.9 µM (inactive) and the GI50 [6] was 24 µM (inactive). For the same compound, the GI50 [7] was 61.5 µM (inactive), the GI50 [8] was 14 µM (inactive) and the GI50 [9] was 33.5 µM (inactive). For the same compound, the GI50 [10] was 31.6 µM (inactive), the GI50 [11] was 34.3 µM (inactive) and the GI50 [12] was 13.6 µM (inactive). The GI50 [13] was 34.4 µM (inactive), the GI50 [14] was 36.9 µM (inactive) and the GI50 [15] was 34.8 µM (inactive). The GI50 [16] was 38.4 µM (inactive), the GI50 [17] was 40.5 µM (inactive) and the GI50 [18] was 35 µM (inactive). The GI50 [19] was 15 µM (inactive), the GI50 [20] was 27.4 µM (inactive) and the GI50 [21] was 29.8 µM (inactive). For the same compound, the GI50 [22] was 57.9 µM (inactive), the GI50 [23] was 26.5 µM (inactive) and the GI50 [24] was 23.6 µM (inactive). For the same compound, the GI50 [25] was 43.9 µM (inactive), the GI50 [26] was 24.8 µM (inactive) and the GI50 [27] was 19 µM (inactive). For the same compound, the GI50 [28] was 37.6 µM (inactive), the GI50 [29] was 24.6 µM (inactive) and the GI50 [30] was 20.9 µM (inactive). The GI50 [31] was 85.5 µM (inactive), the GI50 [32] was 33 µM (inactive) and the GI50 [33] was 32.4 µM (inactive). The GI50 [34] was 25.4 µM (inactive), the GI50 [35] was 32.7 µM (inactive) and the GI50 [36] was 68.7 µM (inactive). The GI50 [37] was 19.9 µM (inactive), the GI50 [38] was 29.9 µM (inactive) and the GI50 [39] was 54.1 µM (inactive). The GI50 [40] was 44.7 µM (inactive), the GI50 [41] was 60 µM (inactive) and the GI50 [42] was 29.1 µM (inactive). The GI50 [43] was 30.2 µM, the GI50 [44] was 21.1 µM (inactive) and the GI50 [45] was 22.9 µM (inactive). The GI50 [46] was 43.4 µM (inactive), the GI50 [47] was 28 µM (inactive) and the GI50 [48] was 33.3 µM (inactive). For the same compound, the GI50 [49] was 35.9 µM (inactive), the GI50 [50] was 32 µM (inactive) and the GI50 [51] was 20 µM (inactive). For the same compound, the GI50 [52] was 17.3 µM (inactive), the GI50 [53] was 17.8 µM (inactive) and the GI50 [54] was 38.1 µM (inactive). For the same compound, the GI50 [55] was 32.7 µM (inactive), the GI50 [56] was 59.6 µM (inactive) and the GI50 [57] was 39.3 µM (inactive).

With `C=C(C)C(=O)OC1C(C(C)CCCO)=C(CO)CC2OC(=O)C(=C)C21` (stereo not drawn) the GI50 [1] was 14 µM (inactive), the GI50 [2] was 17.1 µM (inactive) and the GI50 [3] was 16.7 µM (inactive). The GI50 [4] was 17.5 µM (inactive), the GI50 [5] was 17.1 µM (inactive) and the GI50 [6] was 18.4 µM (inactive). For the same compound, the GI50 [7] was 22.1 µM (inactive), the GI50 [8] was 18.3 µM (inactive) and the GI50 [9] was 14.9 µM (inactive). The GI50 [10] was 13.8 µM (inactive), the GI50 [11] was 4.13 µM (inactive) and the GI50 [13] was 19.9 µM (inactive). The GI50 [14] was 16.3 µM (inactive), the GI50 [15] was 17.4 µM (inactive) and the GI50 [16] was 29 µM (inactive). The GI50 [17] was 28.1 µM (inactive), the GI50 [18] was 16.1 µM (inactive) and the GI50 [19] was 15.1 µM (inactive). The GI50 [20] was 10.4 µM (inactive), the GI50 [21] was 24.1 µM (inactive) and the GI50 [22] was 37.9 µM (inactive). For the same compound, the GI50 [23] was 19.3 µM (inactive), the GI50 [24] was 14.6 µM (inactive) and the GI50 [25] was 24.6 µM (inactive). For the same compound, the GI50 [26] was 24.4 µM (inactive), the GI50 [27] was 6.41 µM (inactive) and the GI50 [28] was 17.1 µM (inactive). The GI50 [29] was 15.6 µM (inactive), the GI50 [30] was 17.1 µM (inactive) and the GI50 [31] was 0.509 µM (active). For the same compound, the GI50 [32] was 12.6 µM (inactive), the GI50 [33] was 37.9 µM (inactive) and the GI50 [34] was 16.7 µM (inactive). The GI50 [35] was 47.2 µM (inactive), the GI50 [36] was 17.7 µM (inactive) and the GI50 [37] was 11 µM (inactive). The GI50 [38] was 14 µM (inactive), the GI50 [39] was 26.5 µM (inactive) and the GI50 [40] was 14.7 µM (inactive). The GI50 [41] was 14.6 µM (inactive), the GI50 [42] was 16.8 µM (inactive) and the GI50 [43] was 13.3 µM. For the same compound, the GI50 [58] was 17.6 µM (inactive), the GI50 [44] was 33.5 µM (inactive) and the GI50 [45] was 20.5 µM (inactive). For the same compound, the GI50 [46] was 23 µM (inactive), the GI50 [47] was 12.6 µM (inactive) and the GI50 [48] was 20.2 µM (inactive). The GI50 [49] was 18.8 µM (inactive), the GI50 [50] was 16.4 µM (inactive) and the GI50 [51] was 3.44 µM (inactive). The GI50 [52] was 10.1 µM (inactive), the GI50 [53] was 15.2 µM (inactive) and the GI50 [54] was 14.5 µM (inactive). For the same compound, the GI50 [55] was 30.3 µM (inactive), the GI50 [59] was 17.1 µM (inactive) and the GI50 [56] was 20 µM (inactive). For the same compound, the GI50 [57] was 23.2 µM (inactive).

`Cc1cc(S(=O)(=O)NC2=Nc3ccc(Cl)cc3C(c3ccccc3)N2)c(S)cc1Cl` (stereo not drawn) was tested, and the GI50 [1] was > 100 µM (inactive), the GI50 [2] was > 100 µM (inactive) and the GI50 [3] was > 100 µM (inactive). For the same compound, the GI50 [4] was > 100 µM (inactive), the GI50 [5] was 97.1 µM (inactive) and the GI50 [6] was 62.5 µM (inactive). For the same compound, the GI50 [7] was > 100 µM (inactive), the GI50 [8] was > 100 µM (inactive) and the GI50 [9] was > 100 µM (inactive). For the same compound, the GI50 [10] was > 100 µM (inactive), the GI50 [11] was > 100 µM (inactive) and the GI50 [12] was 46 µM (inactive). The GI50 [13] was > 100 µM (inactive), the GI50 [14] was > 100 µM (inactive) and the GI50 [15] was 9.02 µM (inactive). The GI50 [16] was > 100 µM (inactive), the GI50 [17] was 43.6 µM (inactive) and the GI50 [18] was > 100 µM (inactive). For the same compound, the GI50 [19] was > 100 µM (inactive), the GI50 [20] was > 100 µM (inactive) and the GI50 [21] was > 100 µM (inactive). For the same compound, the GI50 [22] was 28.5 µM (inactive), the GI50 [23] was > 100 µM (inactive) and the GI50 [24] was 36.8 µM (inactive). For the same compound, the GI50 [25] was > 100 µM (inactive), the GI50 [26] was 1.84 µM (inactive) and the GI50 [27] was > 100 µM (inactive). For the same compound, the GI50 [28] was > 100 µM (inactive), the GI50 [29] was > 100 µM (inactive) and the GI50 [30] was > 100 µM (inactive). The GI50 [31] was > 100 µM (inactive), the GI50 [32] was 92.9 µM (inactive) and the GI50 [33] was 15.4 µM (inactive). The GI50 [34] was > 100 µM (inactive), the GI50 [35] was 20.9 µM (inactive) and the GI50 [36] was > 100 µM (inactive). For the same compound, the GI50 [37] was > 100 µM (inactive), the GI50 [38] was > 100 µM (inactive) and the GI50 [39] was 81.3 µM (inactive). For the same compound, the GI50 [40] was > 100 µM (inactive), the GI50 [41] was > 100 µM (inactive) and the GI50 [42] was > 100 µM (inactive). The GI50 [43] was 67.1 µM, the GI50 [58] was > 100 µM (inactive) and the GI50 [44] was > 100 µM (inactive). The GI50 [46] was > 100 µM (inactive), the GI50 [47] was 57.8 µM (inactive) and the GI50 [48] was 33.8 µM (inactive). For the same compound, the GI50 [49] was > 100 µM (inactive), the GI50 [50] was 8.79 µM (inactive) and the GI50 [51] was > 100 µM (inactive). For the same compound, the GI50 [52] was 47.5 µM (inactive), the GI50 [53] was 85.5 µM (inactive) and the GI50 [54] was 14.3 µM (inactive). The GI50 [55] was > 100 µM (inactive), the GI50 [59] was 9.12 µM (inactive) and the GI50 [56] was > 100 µM (inactive). For the same compound, the GI50 [57] was 17.8 µM (inactive).
